According to publication PMC3758111 (Planta medica, 2013):
Where two headings read alike, the source gives them in different places.

Key:
[1] = incubation with NADPH and human liver microsomes; cited from earlier work
[2] = system: nitric oxide production in lipopolysaccharide-stimulated RAW264.7 macrophages; conditions: cited from earlier work
[3] = system: Caco-2 cells; experiment: Cytotoxicity of pure compounds and extracts to Caco-2 cells; type: cell-based, human; conditions: vs control 0.3% v/v DMSO in DMEM, p < 0.05; tested 10–1000 μM
[4] = rats, oral, as pure compound or in E. purpurea root extract; cited from earlier work
[5] = molecular target: P-glycoprotein transporter (P-gp) (Homo sapiens, UniProt P08183); experiment: P-gp assay: calcein-AM efflux in Caco-2 cells; type: cell-based; conditions: for Concentration that significantly inhibited P-gp activity: single compounds, calcein-AM, Caco-2, p < 0.05
[6] = system: prostaglandin E (2) production in lipopolysaccharide-stimulated RAW264.7 macrophages; conditions: cited from earlier work
[7] = Transepithelial transfer across Caco-2 cell monolayers; type: in vitro ADME, human; conditions: human
[8] = system: Caco-2 cell monolayers; experiment: as above; type: in vitro ADME, human; conditions: for Concentration dependency of uptake / Permeation rates at 37 °C compared with 4 °C: pure compounds; for Permeation rates at 37 °C compared with 4 °C: AP-BL
[9] = 3 h after oral 60% ethanolic extract of E. angustifolia containing 0.4–2 mg of Bauer alkamide 8 and 10; cited from earlier work
[10] = system: Caco-2 cells; experiment: Glucuronidation by Caco-2 cells; conditions: for Compartments in which glucuronide metabolites were found: pure compound, 25 μM applied apically
[11] = system: Caco-2 monolayers; conditions: extracted and isolated from E. pallida roots; cited from earlier work
[12] = system: multidrug transporter P-glycoprotein (P-gp); conditions: isolated from E. pallida; human proximal tubular kidney cells; cited from earlier work
[13] = 100 μM, 72 h, 37°C, RPMI 1640 medium; cited from earlier work
[14] = Caco-2, pH 7.4, Papp, After, single compound, 10–100 μM, subsequent to deconjugation with β-glucuronidase, n=9
[15] = Caco-2, pH 7.4, Papp, Before, single compound, 10–100 μM, prior to deconjugation with β-glucuronidase, n=9

P-glycoprotein transporter (P-gp), sequence (P08183 whole entry): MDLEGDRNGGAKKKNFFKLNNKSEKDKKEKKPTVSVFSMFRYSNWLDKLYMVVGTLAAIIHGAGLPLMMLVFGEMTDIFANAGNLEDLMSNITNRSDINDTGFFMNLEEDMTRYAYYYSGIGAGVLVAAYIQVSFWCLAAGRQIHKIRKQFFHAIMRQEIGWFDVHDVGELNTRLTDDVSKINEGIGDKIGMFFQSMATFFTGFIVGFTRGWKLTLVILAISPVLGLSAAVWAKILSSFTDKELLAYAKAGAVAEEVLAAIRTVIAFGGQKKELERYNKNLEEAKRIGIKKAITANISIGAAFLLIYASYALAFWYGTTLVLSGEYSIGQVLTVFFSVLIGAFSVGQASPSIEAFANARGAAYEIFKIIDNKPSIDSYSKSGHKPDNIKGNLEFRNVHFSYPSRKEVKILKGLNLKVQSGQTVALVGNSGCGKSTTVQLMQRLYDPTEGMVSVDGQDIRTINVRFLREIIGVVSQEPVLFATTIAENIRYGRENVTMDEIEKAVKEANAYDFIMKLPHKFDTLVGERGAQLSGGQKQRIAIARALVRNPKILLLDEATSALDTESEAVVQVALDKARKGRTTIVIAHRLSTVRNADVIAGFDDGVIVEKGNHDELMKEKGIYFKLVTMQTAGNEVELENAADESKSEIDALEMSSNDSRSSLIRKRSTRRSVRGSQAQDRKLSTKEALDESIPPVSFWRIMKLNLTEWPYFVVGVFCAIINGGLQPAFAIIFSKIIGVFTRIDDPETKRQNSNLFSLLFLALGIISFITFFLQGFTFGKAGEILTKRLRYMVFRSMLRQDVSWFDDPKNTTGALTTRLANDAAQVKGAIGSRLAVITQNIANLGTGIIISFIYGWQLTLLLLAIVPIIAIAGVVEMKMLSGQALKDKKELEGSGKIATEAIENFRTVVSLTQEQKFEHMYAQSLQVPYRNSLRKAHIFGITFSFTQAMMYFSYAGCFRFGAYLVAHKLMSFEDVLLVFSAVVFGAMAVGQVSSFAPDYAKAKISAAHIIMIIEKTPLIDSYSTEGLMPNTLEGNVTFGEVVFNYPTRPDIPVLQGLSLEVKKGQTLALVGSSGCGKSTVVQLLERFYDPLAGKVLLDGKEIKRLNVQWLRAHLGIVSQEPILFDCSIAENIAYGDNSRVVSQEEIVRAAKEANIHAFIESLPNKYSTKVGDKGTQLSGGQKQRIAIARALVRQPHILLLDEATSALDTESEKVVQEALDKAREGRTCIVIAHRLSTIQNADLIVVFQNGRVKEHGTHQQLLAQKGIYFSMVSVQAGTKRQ

Structure (SMILES) | Nitric oxide production ([2]; 50 μM) | Concentrations significantly cytotoxic to Caco-2 cells [3] [µM] | Concentration that significantly inhibited P-gp activity [5] [µM] | Prostaglandin E (2) production ([6]; 50 μM) | Papp at 90 min [7, 14] [×10⁻⁶ cm/s] | Papp at 90 min [7, 15] [×10⁻⁶ cm/s] | Concentration dependency of uptake ([8]; 10–100 μM) | Permeation rates at 37 °C compared with 4 °C [8] | Fraction of the ingested dose found in human blood [9] | Compartments in which glucuronide metabolites were found [10] | also measured
C/C=C\C=C/CC/C=C/C=C/C(=O)NCC(C)C [Bauer alkamide 8, (2E,4E,8Z,10Z)-N-isobutyldodeca-2,4,8,10-tetraenamide] | significantly decrease | > 350 | 175 | significantly decrease | 39.8 ± 13.4 | 43.8 ± 11.2 | increased linearly and exhibited non-saturable transport | No significant differences | about 5% | only in the apical side | Metabolites formed [1]: Monohydroxylated, monoepoxidized, and N-dealkylated metabolites; Glucuronide or sulfate metabolite in urine [4]: no glucuronide or sulfate metabolite was present; Papp of Bauer alkamide 8 relative to Bauer alkamide 10 ([8]; Table 2): ~ 2.5 ×; Papp of Bauer alkamide 8 relative to Bauer alkamide 11 ([8]; Table 2): ~ 15 ×
CCC/C=C\CC/C=C/C=C/C(=O)NCC(C)C [Bauer alkamide 10, (2E,4E,8Z)-N-isobutyldodeca-2,4,8-trienamide] |  |  | 205 |  | 18.3 ± 5.9 | 17.7 ± 8.8 | increased linearly and exhibited non-saturable transport | No significant differences | ~1% | in the apical side and cell lysates | 
CCCCCCC/C=C/C=C/C(=O)NCC(C)C [Bauer alkamide 11, (2E,4E)-N-isobutyldodeca-2,4-dienamide] | significantly decrease | > 460 | 230 | significantly decrease |  | 2.8 ± 1.5 | increased linearly and exhibited non-saturable transport | No significant differences |  | in the basolateral side and cell lysates | 
C/C=C\C#CC/C=C\CCCCCC(C)=O [Bauer ketone 24, pentadeca-(8Z, 13Z)-diene-11-yn-2-one] |  | > 990 |  |  |  |  |  |  |  |  | Nitric oxide production ([2]; 5 μM): significantly decrease; Apparent permeability [11]: 10 ± 3 cm/s ×10^−6; Concentrations inhibiting P-gp [12]: 3 to 200 µg/mL; Hydroperoxide intermediate formation, of the parent compound [13]: about 25%; Effect on P-gp activity ([5]; single compound, tested concentrations 1–250 μM): not active; Prostaglandin E (2) production ([6]; 5 μM): significantly decrease; Papp at 90 min ([7]; Caco-2, pH 7.4, Papp from E. sanguinea or E. pallida extracts): 12 to 17 ×10⁻⁶ cm/s; Detection of parent compound apically, basolaterally or in cell lysates ([8]; applied as pure compound, 10–100 μM, any time point 15–90 min): not found; Recovered in the basolateral side ([8]; compound as contained in the two Echinacea species extracts): About 5%; Metabolism when incubated with Bauer alkamides 8, 10 and 11 ([10]; 10–100 μM, data not shown): totally metabolized; Metabolism when administered as a single compound ([10]; Caco-2 cells): totally metabolized to more hydrophilic metabolites; Recovery relative to applied amount after β-glucuronidase treatment ([10]; contained in E. sanguinea and E. pallida extracts, basolaterally and in cell lysates): significantly increased
